Measurements published in US12158464B2, “Methods for modeling disease tissue using three-dimensional tissue systems” (priority 2013, dated 2024).

Tests used:
[1] = test system: hESC-derived CMs 3D tissues; assay type: cell-based, human
Method: Alternatively, to measure the force generated by the 3D engineered cardiac tissues, a bioreactor consisting of a PDMS tissue chamber capable of housing 8 micotissues was employed. […] Briefly, each well of the PDMS chamber had two posts which served as anchoring points for each cardiac tissue during gel compaction. Furthermore, by tracking a post's deflection, the force of contraction a cardiac tissue generated was determined. Cardiac tissues underwent 7 days of pre-culture followed by 7 days of treatment with endothelin-1, angiotensin II or isoproterenol. After the treatment, the contractile force of each cardiac tissue was determined by video recording, one at a time, the top surface of a post for each cardiac tissue while being paced at 0.5 or 1 Hz using CellSens software (Olympus). Each video was then exported as a series of Tiff images and opened in ImageJ. […] Using the method of superposition for a cantilever beam-partial uniform deflection, a point force was calculated and then normalized to the tissues cross sectional area (assumed circular) to determine the cardiac force per area.

hESC-CM biowires (Hes2) [2] = assay type: cell-based, human
Method: After preculture for 7 days, biowires were randomly transferred to 6-well plates and cultured in StemPro-34 media in the absence or presence of Isoproterenol (100 nM), Angiotensin II (200 nM [17]) or Endothelin-1 (150 nM)(Sigma) for 7 days. This protocol was chosen to replicate the chronic treatment of mice as described. […] Isolated single cells were seeded on Matrigel-coated glass cover slips before cell area and calcium transient measurements were performed. Immunostaining and Fluorescence Microscopy. Immunostaining was performed using the following antibodies: mouse anti-cTNT (1:100, Thermo Scientific; MS-295-P1), mouse anti-α-actinin (1:200, Abcam, ab9465), anti-mouse-Alexa Fluor 488 (1:400, Invitrogen, A21202), anti-rabbit-TRITC (1:400, Invitrogen, 81-6114). DAPI was used to counterstain nuclei. Phalloidin Alexa Fluor 660 (1:1000, Invitrogen, A22285) was used to detect actin fibers. The stained cells were visualized using a fluorescence microscope (Leica CTR6000) and images captured using the Leica Application Suite software. For confocal microscopy cells were visualized using a fluorescence confocal microscope (Zeiss LSM-510). Transmission Electron Microscopy (TEM). Tissue was fixed with 4% Paraformaldehyde, 1% Glutaraldehyde in 0.1 M PBS for at least 1 hr and washed 3 times with PBS pH 7.2. Post-fixation was done with 1% Osmium Tetraoxide in 0.1 M PBS, pH 7.2 for 1 hr and dehydrated using ethanol series from 25 to 100%. Tissue was infiltrated using Epon resin and polymerized in plastic dishes at 40° C. for 48 hr. Tissue was stained with Uranyl Acetate and Lead Citrate after sectioning. Imaging was performed at Hitachi H-7000 transmission electron microscope.

[3] = test system: hESC-derived cardiomyocytes (Hes2 cell line); test: Calcium transient measurements in single cardiomyocytes dissociated from tissue strands; assay type: cell-based, human
Method: Calcium transient measurements were taken. Tissue strands were dissociated by incubation with collagenase and trypsin as described in detail above. The dissociated cardiomyocytes were plated onto growth factor free Matrigel (diluted 1:60 in RPMI media)-coated 25-mm microscope glass coverslips overnight. Cells were then incubated with 5 μM of fluo-4 acetoxymethyl ester (fluo-4 AM) in culture media for 2 hours at 37° C. Subsequently, cardiomyocytes were washed twice with dye-free medium and placed back into the incubator for 30 min. A laser scanning confocal microscope (Zeiss LSM 510) was used to measure the fluorescence intensity of fluo-4 AM. The coverslips containing the fluo-4 AM-loaded cardiomyocytes were moved onto a special chamber and tightly secured. Approximately 1.8-1.9 ml of culture medium was added into the chamber, which was placed on a temperature controlled-plate (37° C.) on the microscope. Fluo-4 was excited via an argon laser (488 nm) and emitted fluorescence was collected through a 505 nm emission filter. Changes in fluo-4 AM fluorescence intensity, which indicates transient fluctuation of cytosolic calcium concentration, were recorded in frame and line scan model. The images and fluorescence data were acquired through Zeiss software. The fluorescence data were analyzed with Origin 8.5 software. Fluorescence signals (F) were normalized to baseline fluorescence after loading fluo-4 AM. The rising phase of the signals was fitted by linear model while the decaying phase of the signals was fitted by ExpDecay with Offset model. Caffeine, Verapamil (Sigma) and Thapsigargin (Invitrogen) were directly added into the chamber that contained the cardiomyocytes during imaging at concentrations indicated in the figures.

[4] = test system: Hes2 hESC derived cardiomyocytes; assay type: cell-based, human; conditions: single cells dissociated at end of 7 days treatment, cardiac troponin T staining
Method: (§1) After preculture for 7 days, biowires were randomly transferred to 6-well plates and cultured in StemPro-34 media in the absence or presence of Isoproterenol (100 nM), Angiotensin II (200 nM [17]) or Endothelin-1 (150 nM)(Sigma) for 7 days. This protocol was chosen to replicate the chronic treatment of mice as described. […] Isolated single cells were seeded on Matrigel-coated glass cover slips before cell area and calcium transient measurements were performed.

hESC-CM biowires (Hes2) [5] = test: Chronic drug exposure: ELISA of soluble BNP in conditioned media; assay type: cell-based, human
Method: as §1, with “performed. ELISA. Quantification of soluble BNP from the conditioned media was performed using commercially available ELISA kits.” for “performed.”

hESC-CM biowires (Hes2) [6] = test: Chronic drug exposure of biowires: quantitative RT-PCR of fetal gene program; assay type: cell-based, human; conditions: 7 days treatment: ISO 100 nM, Et-1 150 nM, AngII 200 nM; vs untreated control
Method: as §1
Quantitative RT-PCR. RT-PCR was performed as previously described. Total RNA was prepared with the High Pure RNA Isolation Kit (Roche) and treated with RNase-free DNase (Roche). RNA was reverse transcribed into cDNA using random hexamers and Oligo (dT) with SuperScript VILO (Invitrogen). RT-qPCR was performed on a LightCycler 480 (Roche) using LightCycler 480 SYBR Green I Master (Roche). Expression levels were normalized to the housekeeping genes TATA box binding protein (TBP) or Glyceraldehyde 3-phosphate dehydrogenase (GAPDH).

[7] = test system: endothelialized AngioChip human cardiac tissue; conditions: 10 μM perfused through built-in vasculature, within 30 min
Method: Cardiac drug test. On day 7 of culture, the spontaneous contractions of the cardiac tissues were recorded as bright-field videos. […] After 30 min incubation, the spontaneous contractions of the cardiac tissues were recorded again as bright-field videos. The frequency of contraction was analyzed from the recorded videos with image J. DMSO was used to dissolve the drugs. The final concentration of DMSO in the culture media was diluted to less than 0.1% (v/v).

[8] = test system: Hes2 hESC-derived cardiomyocyte tissue strands; conditions: Hes2 hESC-cardiomyocyte tissue strand; DI-4-ANEPPS imaging
Method: For human cardiac tissue strands, day 20 EBs generated as described above were incubated in collagenase type I (1 mg/ml; Sigma) and DNAse (1 mg/ml, CalBiochem) in Hank's Balanced Salt Solution (NaCl, 136 mM; NaHCO3, 4.16 mM; Na3PO4, 0.34 mM; KCl, 5.36 mM; KH2PO4, 0.44 mM; dextrose, 5.55 mM; HEPES, 5 mM) for 2 hr at 37° C. EBs were centrifuged (800 r.p.m., 5 min), incubated with trypsin (0.25%, Gibco) for 5 min at 37° C. and pipetted gently to dissociate the cells. After dissociation, cells were centrifuged (1,000 r.p.m., 5 min), counted and seeded at 0.5×10^6 cells/strand of 0.5 cm in length. This ratio was maintained for generation of longer tissue strands. […]
For optical mapping, tissue strands were incubated with a voltage sensitive dye (Di-4-ANEPPS 5 μM, Invitrogen) for 20 min at 37° C. in warm Tyrode's solution (NaCl 118 mM, KCl, 4.7 mM, CaCl2 1.25 mM, MgSO4 0.6 mM, KH2PO4 1.2 mM, NaHCO3 25 mM, glucose 6 mM; oxygenated by bubbling carbogen 95% O2, 5% CO2 for at least 20 minutes shortly before use). Dye fluorescence was recorded on a MVX-10 Olympus fluorescence microscope equipped with a high-speed CMOS camera (Ultima-L, Scimedia)^29-30. […] The fluorescence was excited using a mercury arc source (X-Cite Exacte) with green filter (Olympus U-MWIG2 filter cube). […]

[9] = test system: human cardiac tissue strands (hESC, Hes2 derived cardiomyocytes); test: Biorod drug testing: tissue beating pattern and contractile force by polymer wire deflection; assay type: cell-based; conditions: for response of human cardiac tissues to well-known drugs: summary statement
Method: Cardiomyocytes were derived from human embryonic stem cell lines (hESC, Hes2). Embryoid bodies (EBs) were differentiated to the cardiovascular lineage and disassociated as previously described in Device 1 Methods. Before cell seeding, micro-well surface was rinsed with 5% (w/v) Pluronic Acid (Sigma P2443) and then air dried in the bio-safety cabinet. hESC derived cardiomyocytes were suspended at 200 million/ml (unless specified otherwise) in Collagen Type I based gel (3.0 mg/ml of rat tail collagen type I (BD Biosciences) neutralized by 1N NaOH and 10×M199 media as described by the manufacturer) with the supplements of […], 1% (v/v) HEPES, 10% (v/v) Matrigel (BD Biosciences), and […]. Suspended cardiomyocytes were then seeded into the cell culture channel (2.5 μl per well). After 30 min incubation at 37° C. to induce the gelation, appropriate media were added. After seeding, cells were kept in culture for 7 days to allow collagen matrix remodeling and assembly around the wires. Cardiac tissue strands were kept in culture for up to 21 days with media change every 2-3 days. Preferably, the tissue strands should be kept in culture for at least 2 weeks to allow for maturation; however there is no limitation on the maximum culture duration. Cardiac tissue strands were seeded to observe the stability and reproducibility of tissue in long term culture. After seeding, brightfield images (see FIG. 39A for an example) of the tissue strands were taken every day (n=3 per group) using optical microscope (Olympus CKX41) and the diameters of the tissue strands at four distinct locations were analyzed with imageJ (see FIG. 39B for an example). Tissue strand lengths were also analyzed with same method.
Tissue contractile behavior tracing and measurement was carried out. POMac is auto-fluorescent at a wide range of wavelenths; therefore the wires were imaged with a fluorescence microscope under DAPI channel (e.g. 461 nm wavelength) to trace the bending movements of the wires. The POMac is auto-fluorescent at a wide range of wavelengths, including under FITC and Tritc channels. Images were taken at 25 frames per second (fps) (see FIG. 39C). Image sequences were analyzed with ImageJ software using tracking plugin. To calculate the forces originated from cardiac tissues, beam deflection formula with uniformly distributed load in the middle section was used here. […] The engineered cardiac tissues were paced at 2 Hz frequency. From this image sequence, contraction and relaxation time of beating can be estimated. […] Tissue stretching wires can be considered uniformly distributed Load, Wo (Load per force bearing length), which can be calculated with displacement of center point of wires in image sequence, and F can be calculated as well. […] Briefly, entire beam length was L. Section of wire with tissue wrapping around it was experiencing load. Here, the load was assumed to be evenly distributed throughout this section, and Wo was load per length. […] The distance between side of the tissue and a well wall is a, which was assumed equal for both sides. The deflection at center point was y.
Drug testing was carried out.

Compound: CC[C@H](C)[C@H](NC(=O)[C@H](Cc1ccc(O)cc1)NC(=O)[C@@H](NC(=O)[C@H](CCCNC(=N)N)NC(=O)[C@@H](N)CC(=O)O)C(C)C)C(=O)N[C@@H](Cc1cnc[nH]1)C(=O)N1CCC[C@H]1C(=O)N[C@@H](Cc1ccccc1)C(=O)O [AngII, angiotensin II]
- force of contraction [1]: significantly reduced force of contraction
- contractile apparatus (transmission electron microscopy) (hESC-CM biowires (Hes2) [2]): significant absence of distinct Z-disks and the lack of a defined sarcomere structure

Compound: C/C=C(/C)C(=O)O[C@H]1C(C)=C2[C@H]([C@@H]1OC(=O)CCCCCCC)[C@@](C)(OC(C)=O)C[C@H](OC(=O)CCC)[C@@]1(O)[C@H]2OC(=O)[C@@]1(C)O [thapsigargin]
- calcium transients after blockage of SERCA ([3]; cells from 6 Hz tissue strands): cessation of calcium transients with time

Compound: endothelin-1 [Et-1]
- force of contraction [1]: significantly reduced force of contraction
- increase in cell size [4]: 100%
- BNP in the conditioned media (hESC-CM biowires (Hes2) [5]; chronic treatment): BNP can also be found in the conditioned media
- increase in the secretion of BNP (hESC-CM biowires (Hes2) [5]; day 2 post-treatment, media conditioned for 48 h): 5 fold
- increase of BNP in the media (hESC-CM biowires (Hes2) [5]; day 7, media conditioned for 24 h): 7 fold
- contractile apparatus (transmission electron microscopy) (hESC-CM biowires (Hes2) [2]): significant absence of distinct Z-disks and the lack of a defined sarcomere structure
- ANF and BNP gene expression (fetal gene program) (hESC-CM biowires (Hes2) [6]): no changes in gene expression

Compound: C[C@H]1O[C@@H](O[C@H]2[C@@H](O)C[C@H](O[C@H]3[C@@H](O)C[C@H](O[C@H]4CC[C@@]5(C)[C@H](CC[C@@H]6[C@@H]5C[C@@H](O)[C@]5(C)[C@@H](C7=CC(=O)OC7)CC[C@]65O)C4)O[C@@H]3C)O[C@@H]2C)C[C@H](O)[C@@H]1O [digoxin]
- chronotropic response (frequency of spontaneous contraction) [7]: negative chronotropic response

Compound: Cn1c(=O)c2c(ncn2C)n(C)c1=O [caffeine]
- effect of caffeine added post blockage of L-type Ca2+ channels ([3]; cells from 6 Hz tissue strands, after verapamil or nifedipine): Ca^2+ release into the cytosol
- Ca2+ transient amplitude intensity in response to caffeine ([3]; electrically stimulated cells vs non-stimulated controls, caffeine 5 mM): significantly higher amplitude intensity
- response of cytosolic Ca2+ to caffeine ([3]; single cells from electrically stimulated tissue strands, 3 and 6 Hz conditions): inducing an increase in cytosolic Ca^2+
- response of cytosolic Ca2+ to caffeine ([3]; single cells from non-stimulated control tissue strands): none of the hESC-cardiomyocytes in non-stimulated controls were responsive

Compound: CNC[C@H](O)c1ccc(O)c(O)c1 [Epinephrine, epinephrine]
- chronotropic response (frequency of spontaneous contraction) [7]: positive chronotropic response
- spontaneous beating frequency [8]: increasing spontaneous beating frequency

Compound: Cc1cccc(CCN2CCC(C(=O)c3ccc(NS(C)(=O)=O)cc3)CC2)n1 [E4301]
- response of human cardiac tissues to well-known drugs [9]: responded appropriately

Compound: NC[C@H](O)c1ccc(O)c(O)c1 [Norepinephrine]
- beating frequency ([9]; 10 μM): significant increased beating frequency
- response of human cardiac tissues to well-known drugs [9]: responded appropriately

Compound: COc1ccc(CCN(C)CCCC(C#N)(c2ccc(OC)c(OC)c2)C(C)C)cc1OC (stereo not drawn) [verapamil]
- Ca2+ transients after blockage of L-type Ca2+ channels ([3]; cells from 6 Hz tissue strands): cessation in Ca^2+ transients
